Test results as given in patent publication US20240165281A1, “DUAL MODE RADIOTRACER AND THERAPEUTICS” (Technische Universität München, priority 2021, published 2024).

Experiments:
PSMA = target: T1, PSMA (Homo sapiens, UniProt Q04609); assay: PSMA affinity (IC50), competition with [125I]I-BA-KuE on LNCaP cells; format: binding; conditions: natLu complex, on ice 60 min, read-out: IC50
T1 construct: PSMA-positive LNCAP cells (300265; Cell Lines Service, Eppelheim, Germany); host or cells: LNCaP cells
Method: A mixture of trypsin and EDTA (0.05%, 0.02%) in PBS (Biochrom) was used in order to harvest cells. Cells were counted with a Neubauer hemocytometer (Paul Marienfeld, Lauda-Königshofen, Germany).
Affinity Determinations (IC50)
In the case of metal-complexed ligands, the crude reaction mixture was diluted analogously, without further purification. Cells were harvested 24±2 hours prior to the experiment and seeded in 24-well plates (1.5×10^5 cells in 1 mL/well). […] The media of both steps were combined in one fraction and represent the amount of free radioligand. Afterwards, the cells were lysed with 250 μL of 1 M aqueous NaOH for at least 10 min. After a washing step (250 μL of 1 M NaOH), both fractions, representing the amount of bound ligand, were united. Quantification of all collected fractions was accomplished in a γ-counter. PSMA-affinity determinations were carried out at least three times per ligand.

LNCaP cells = assay: Internalization studies in LNCaP cells; format: cell-based; conditions: 37° C., 60 min
Method: PSMA-positive LNCAP cells (300265; Cell Lines Service, Eppelheim, Germany) were cultivated in Dulbecco modified Eagle medium/Nutrition Mixture F-12 with Glutamax (1:1) (DMEM-F12, Biochrom, Berlin, Germany) supplemented with fetal bovine serum (10%, FBS Zellkultur, Berlin, Germany) and kept at 37° C. in a humidified CO2 atmosphere (5%). A mixture of trypsin and EDTA (0.05%, 0.02%) in PBS (Biochrom) was used in order to harvest cells. Cells were counted with a Neubauer hemocytometer (Paul Marienfeld, Lauda-Königshofen, Germany).
For internalization studies, LNCaP cells were harvested 24±2 hours before the experiment and seeded in poly-L-lysine coated 24-well plates (1.25×10^5 cells in 1 mL/well, Greiner Bio-One, Kremsmünster, Austria). After removal of the culture medium, the cells were washed once with 500 μL DMEM-F12 (5% BSA) and left to equilibrate for at least 15 min at 37° C. in […] DMEM-F12 (5% BSA). Each well was treated with either 25 μL of either DMEM-F12 (5% BSA, control) or 25 μL of a 100 μM PMPA (2-(Phosphonomethyl)-pentandioic acid, Tocris Bioscience, Bristol, UK) solution in PBS, for blockade. Next, 25 μL of the radioactive-labelled PSMA inhibitor (10.0 nM in DMEM-F12 (5% BSA)) was added and the cells were incubated at 37° C. for 60 min. The experiment was terminated by placing the 24-well plate on ice for 3 min and consecutive removal of the medium. Each well was carefully washed with 250 μL of ice-cold HBSS. Both fractions from the first steps, representing the amount of free radioligand, were combined. Removal of surface bound activity was accomplished by incubation of the cells with 250 μL of ice-cold PMPA (10 μM in PBS) solution for 5 min and rinsed again with another 250 μL of ice-cold PBS. The internalized activity was determined by incubation of the cells in 250 μL […] aqueous NaOH for at least 10 min. The obtained fractions were combined with those of the subsequent wash step with 250 μL 1 M aqueous NaOH. Each experiment (control and blockade) was performed in triplicate. Free, surface bound and internalized activity was quantified in a y-counter. All internalization studies were accompanied by external reference studies, using ([^125I]I-BA)KuE (c=0.2 nM), which were performed analogously. Data were corrected for non-specific binding and normalized to the specific-internalization observed for the radioiodinated reference compound.

T1 sequence (Q04609 whole entry): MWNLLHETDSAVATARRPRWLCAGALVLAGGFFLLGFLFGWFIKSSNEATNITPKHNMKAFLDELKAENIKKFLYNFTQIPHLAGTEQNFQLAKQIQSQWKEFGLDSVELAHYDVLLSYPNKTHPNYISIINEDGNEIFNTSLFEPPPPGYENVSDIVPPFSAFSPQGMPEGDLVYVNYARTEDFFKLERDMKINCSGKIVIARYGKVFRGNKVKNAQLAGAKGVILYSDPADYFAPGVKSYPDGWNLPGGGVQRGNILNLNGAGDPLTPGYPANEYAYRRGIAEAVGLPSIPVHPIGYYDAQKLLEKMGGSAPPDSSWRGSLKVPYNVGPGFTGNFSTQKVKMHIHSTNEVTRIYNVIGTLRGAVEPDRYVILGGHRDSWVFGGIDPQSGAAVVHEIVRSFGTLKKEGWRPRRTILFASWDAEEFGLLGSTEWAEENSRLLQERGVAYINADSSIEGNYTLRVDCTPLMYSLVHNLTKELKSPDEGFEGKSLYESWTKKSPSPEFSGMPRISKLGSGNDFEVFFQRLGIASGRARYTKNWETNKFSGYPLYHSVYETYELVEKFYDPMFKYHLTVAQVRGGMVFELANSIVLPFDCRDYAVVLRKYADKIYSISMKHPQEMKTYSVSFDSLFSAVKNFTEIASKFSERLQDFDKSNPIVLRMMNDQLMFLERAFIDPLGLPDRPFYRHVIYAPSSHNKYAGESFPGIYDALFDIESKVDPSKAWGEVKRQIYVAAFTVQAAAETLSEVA

With CC(C)(C)[Si](F)(c1ccc(C(=O)NC[C@@H](NC(=O)CN2CCN(CC(=O)O)CCN(CC(=O)O)CCN(CC(=O)O)CC2)C(=O)N[C@H](CO)C(=O)NCCC(=O)NCCC(=O)NCCC[C@@H](NC(=O)CC[C@H](NC(=O)N[C@@H](CCC(=O)O)C(=O)O)C(=O)O)C(=O)O)cc1)C(C)(C)C [Compound 2C013] the IC50 (PSMA) was 4.44 nM, the Internalization (LNCaP cells; normalized to ([125I]I-BA)KuE) was 141 ± 8^ % IBA-KuE and the Internalization (LNCaP cells; normalized to reference) was 141 ± 8 % IBA.
